Measurements reported in publication doi:10.1101/2025.03.03.641193, “Trihydroxybenzaldoximes are redox cycling inhibitors of ThDP-dependent DXP synthase” (bioRxiv, 2025).
Entries after “also recorded” stand apart in the source; their conditions may differ. Read-outs that look alike come from different tables or passages of the source.

Assays:
[1] = target: T1, alcohol dehydrogenase (ADH) (Equus caballus, UniProt P00327); test: Inhibition of ADH; format: biochemical; conditions: up to 200 μM, MES pH 6.2
T1 construct: purchased Sigma Aldrich 55689
Procedure: Reaction mixtures containing MES (100 mM, pH 6.2), MgCl2 (2 mM), ThDP (5 mM), ADH (16 U/mL), NADH (170 μM), and 1 (0 or 200 μM) were preincubated at 25 °C for 5 min. Enzymatic reactions were initiated via the addition of 20 μL of 10x acetaldehyde (final 1mM), or water for background controls, for a final well volume of 200 μL. Immediately following initiation, NADH depletion was monitored at 340 nm at 25 °C for 6 min with a 11 second time interval. Initial velocities of ethanol formation were measured as above and arithmetically corrected for background rates. Reported standard errors of the mean for Kis are calculated from three replicates.

R478A DXPS = target: T2, R478A DXPS (Escherichia coli, UniProt P77488, R478A); test: DXPS-IspC coupled assay, R478A variant; format: biochemical, E. coli
T2 construct: made in house
Procedure: In this experiment, pyruvate was varied from 12.5–500 μM and D-GAP was maintained at 2x Km.. […] Thus, it appears that EcR478A is not absolutely critical for binding 1.
Inhibitory activity of compounds against DXPS were monitored via a continuous spectrophotometric coupled assay with DXPS and IspC as previously described.[41],[42] Briefly, Reaction mixtures containing HEPES (100 mM, pH 8.0), MgCl2 (2 mM), NaCl (5 mM), ThDP (1 mM), BSA (1 mg/mL), DXPS (125–500 nM), IspC (1.7 μM), NADPH (160 μM), DMSO (5%, v/v), and inhibitor (0–200 μM) were preincubated at 25 °C (or chamber temperature 25–30 °C) for 5 min. Enzymatic reactions were initiated via the addition of 20 μL of a 10x substrate mix for a final well volume of 200 μL. Reactions were performed in triplicate unless otherwise noted. See the following sections for details and modifications.
When varying pyruvate (0–500 μM), GAP was maintained at 50 μM (3 mM for R478A). When varying GAP (0–500 μM), pyruvate was maintained at 500 μM. The following [DXPS] were used when varying 1: WT EcDXPS, R478A, H431A, D427A (200 nM), R99A (500 nM), WT DrDXPS, WT PaDXPS (150 nM). Analogs 3 and 4 were tested using WT EcDXPS (150 nM). Reactions were incubated and initiated as described above. Immediately following initiation, NADPH depletion was monitored at 340 nm at 25 °C for 7–10 min with a 14–20 second time interval. Initial velocities of DXP formation were determined from the linear portion of the NADPH decay. Initial velocities were arithmetically corrected for background for compound 4. Initial velocities were plotted vs. substrate concentration, and the data were fit to equation 1 (mixed model), 2 (competitive), or 3 (uncompetitive) based on the calculated α value and goodness of fit in GraphPad Prism. Reported standard errors of the mean for Kis are calculated from three replicates.

D427A DXPS = target: T3, D427A DXPS (Escherichia coli, UniProt P77488, D427A); test: DXPS-IspC coupled assay, D427A variant; format: biochemical, E. coli
T3 construct: made in house
Procedure: To determine the role of active site network residues in the activity of oximes, inhibitory activity of 1 was assessed against EcD427A, EcH431A, and EcR99A by the DXPS-IspC coupled assay[41],[42] (Fig 4B, S3, Table S1). Ki determination was performed by varying [pyruvate] in order to assess the impact of residue substitutions on the uncompetitive mode of inhibition. […] (8.7 ± 1.2 μM, Fig S3, Table S1).
Inhibitory activity of compounds against DXPS were monitored via a continuous spectrophotometric coupled assay with DXPS and IspC as previously described.[41],[42] […]
When varying pyruvate (0–500 μM), GAP was maintained at 50 μM (3 mM for R478A). […] Immediately following initiation, NADPH depletion was monitored at 340 nm at 25 °C for 7–10 min with a 14–20 second time interval. Initial velocities of DXP formation were determined from the linear portion of the NADPH decay. […] Initial velocities were plotted vs. substrate concentration, and the data were fit to equation 1 (mixed model), 2 (competitive), or 3 (uncompetitive) based on the calculated α value and goodness of fit in GraphPad Prism. Reported standard errors of the mean for Kis are calculated from three replicates.

EcDXPS = target: T4, EcDXPS (Escherichia coli, UniProt P77488); test: Inhibition in the presence of CAT or ascorbate; format: biochemical, E. coli
T4 construct: made in house
Procedure: Given that CAT prevents nonenzymatic oxidative decarboxylation of pyruvate (Fig S8, S12), but influences the redox state of 1, we evaluated the inhibitory activity of 1 in the presence of CAT (Fig 6). […] In this experiment, 1 was incubated at 25 °C for 5 min in the presence of DXPS, IspC, and either CAT or ascorbate prior to initiation by addition of pyruvate and D-GAP. […] In the presence of ascorbate, 1 is primarily in the reduced form according to NMR (Fig S10).
Reaction solutions were prepared containing EcDXPS (150 nM). Solutions contained either DXPS alone or were supplemented with CAT (0.25 mg/mL) or ascorbate (5 mM). Reaction mixtures were incubated with either water or 1 (100 μM) for 5 min at 25 °C. Reactions were initiated with a mixture of pyruvate (110 μM) and GAP (60 μM), or water for background controls. Immediately following initiation, NADPH depletion was monitored at 340 nm at 25 °C for 7.5 min with a 14 second time interval. Initial velocities of DXP formation were measured as described above and arithmetically corrected for background rates and normalized to the DXPS only control reaction for comparison. Reactions were performed in triplicate, and % inhibition was determined arithmetically from initial velocities. Reported standard errors of the mean for Kis are calculated from three replicates.

**Q.** What does the source list for `ON=Cc1cc(O)c(O)cc1O` [compound 1, 2,4,5-trihydroxybenzaldoxime]?
**A.** Inhibition of ADH [1]: did not inhibit; also recorded: not inhibited; Ki (R478A DXPS): 15.7 ± 0.4 µM; MOI varying pyruvate (R478A DXPS; EcR478A): uncompetitive; Ki/Ki^wt (R478A DXPS; R478A, vary pyruvate, fold reduction in potency vs WT): ~ 3; Ki (D427A DXPS): 4.8 ± 0.2 µM; MOI varying pyruvate (D427A DXPS; EcD427A): uncompetitive; inhibition at 100 µM (EcDXPS; read-out: %Inhibition at 100 μM 1, Ascorbate 5 mM, aerobic, 100 μM): 23%; inhibition at 100 µM (EcDXPS; read-out: %Inhibition at 100 μM 1, CAT 0.25 mg/mL, aerobic, 100 μM): 80%; inhibition at 100 µM (EcDXPS; read-out: %Inhibition at 100 μM 1, Control (DXPS alone), aerobic, 100 μM): 80 ± 0.5%
